The text below walks through data of US4963580A, “Substituted 5-hydroxy-2,3-dihydrobenzothiophenes as inhibitors of leukotriene biosynthesis” (Merck & Co., Inc., priority 1989, dated 1990).

For orientation: IC50 means the concentration that gives 50% inhibition.

Assay [1] relates to production of leukotriene B4 (LTB4) in isolated rat polymorphonuclear leukocytes (PMN). In words: inhibition of LTB4 production in isolated rat polymorphonuclear leukocytes (Rat PMN). The assay is classed as cell-based, rat (male Sprague Dawley). The settings on record: Leukocyte, 5 min, LTB4 by RIA, A23187 10 μM, 37° C., read-out: Polymorphonuclear Leucocyte (PMN) Activity, Rat PMN IC50. The procedure:
(§1) The assay is conducted as follows:
B. Rat Peritoneal Polymorphonuclear leukocytes (PMN). Male Sprague Dawley rats were purchased from Taconic Farms, Germantown, NY. The animals were maintained on standard pellet diet and water ad lib. Elicited PMN were prepared from peritoneal exudates as follows: 8 ml of 12% sodium caseinate was injected intraperitoneally into male rats. After 18-20 hours, the rats were killed with CO2 and the peritoneal cavities were lavaged with Eagle's MEM (pH 7.7) without NaHCO3 but containing Earle's salts, L-glutamine, and 30 mM HEPES. The PMN were isolated by centrifugation, washed with MEM, filtered through lens paper to remove clumps, and adjusted to a concentration of 1×10^7 cells/ml.
(§2) C. Generation and Radiommumoassay of LTB4. PMNs (0.5 mL; 2.5×10^5 cells) are placed in plastic tubes and incubated (37° C., 2 min) with test compounds at the desired concentration or vehicle control (DMSO, final concentration 0.2%). The synthesis of LTB4 is initiated by the addition of calcium inophore A23187 (final concentration 10 μM) or vehicle on control samples and allowed to proceed for 5 minutes at 37° C. The reactions are then terminated by the addition of cold methanol (0.25 mL) and samples of the entire PMN reaction mixture are removed for radiommunoassay of LTB4.
(§3) Samples (50 μl ) of authentic LTB4 of known concentration in radiommunoassay buffer (RIA) buffer (potassium phosphate 1 mM; disodium EDTA 0.1 mM; Thimerosal 0.025 mM; gelatin 0.1%, pH 7.3) or PMN reaction mixture diluted 1:1 with RIA buffer are added to reaction tubes.
(§4) Thereafter [3H]-LTB4 (10 nCu in 100 μl RIA buffer) and LTB4 antiserum (100 μL of a 1:3000 dilution in RIA buffer) are added and the tubes vortexed. Reactants are allowed to equilibrate by incubation overnight at 4° C. To separate antibody-bound from free LTB4, aliquots (50 μL) of activated charcoal (3% activated charcoal in RIA buffer containing 0.25% Dextran T-70) were added, the tubes vortexed, and allowed to stand at room temperature for 10 minutes prior to centrifugation (1500×g; 10 min; 4° C). The supernatents containing antibody-bound LTB4 are decanted into vials and Aquasol 2 (4 mL) was added. Radioactivity is quantified by liquid scintillation spectrometry. […] The specificity of the antiserium and the sensitivity of the procedure have been described in detail elsewhere. (Rokach, J.; Hayes, E. C.; Griard, Y.; Lombardo. D. L.; Maycock, A. L.; Rosenthal, A. S.; Young, R. N.; Zamboni, R.; Zweerink, H. J. Prostaglandins Leukotrienes and Medicine 1984, 13, 21). The amount of LTB4 produced in test and control approx. 20ng/10^6cells) samples are then calculated. Inhibitory dose response curves are constructed using a four parameter algorithm and from these the IC50 values are determined.

Assay [2] deals with production of leukotriene B4 (LTB4) in isolated human polymorphonuclear leukocytes (PMN). In words: inhibition of LTB4 production in isolated human polymorphonuclear leukocytes (Human PMN). The assay is classed as cell-based. The settings on record: Leukocyte, 5 min, LTB4 by RIA, A23187 10 μM, 37° C., read-out: Polymorphonuclear Leucocyte (PMN) Activity, Human PMN IC50. The procedure: as §1
A. Preparation of Human PMN. Human blood is obtained by antecubital venepuncture from consenting volunteers who denied having taken medication within the previous 7 days. The blood is immediately added to 10% (v/v) trisodium citrate (0.13 M) or 5% (v/v) sodium heparin (1000 IU/mL). PMNs are isolated from anticoagulated blood by dextran sedimentation and centrifugation through Ficoll Hypaque (specific gravity 1.077), essentially as described by Boyum. (Boyum, A., Scand. J. Clin. Lab. Invest. 1968, 21 (Supp 97), 77). Contaminating erthrocytes are removed by lysis following exposure to ammonium chloride (0.16 M) in Tris buffer (pH 7.65), and the PMNs resuspended at 5×10^5 cells/mL in HEPES (15 mM) buffered Hanks balanced salt solution containing Ca^2+ (1.4 mM) and Mg^2+ (0.7 mM), pH 7.4. Viability is assessed by Trypan blue exclusion and is typically greater than 98%.
as §2, §3
as §4, with “(Rokach, J.; Hayes, E. C.; Griard, Y.; Lombardo. D. L.; Maycock, A. L.; Rosenthal, A. S.; Young, R. N.; Zamboni, R.; Zweerink, H. J. Prostaglandins Leukotrienes and Medicine 1984, 13, 21).” left out

Assay [3] concerns leukotriene biosynthesis in human polymorphonuclear leukocytes. The settings on record: known inhibitors of leukotriene biosynthesis; cited from earlier work.
Assay [4] has as its system production of leukotriene B4 (LTB4) in polymorphonuclear leukocytes (PMN). In words: LTB4 inhibition in the above described in vitro test (PMN, species not stated). The class given is cell-based. The settings on record: Leukocyte, standard compounds.

`CC(C)(C)c1cc2c(cc1O)CCS2` [R4 = H, R6 = --C4 H10, 6-t-butyl-2,3-dihydro-5-hydroxybenzothiophene]: the IC50 in assay [1] came to 0.207 µM; in assay [2], 0.142 µM.

As to `C=CCc1cc2c(cc1O)CCS2` [R4 = H, R6 = --CH2 CH= CH2, 6-Allyl-5-hydroxy-2,3-dihydrobenzothiophene], the IC50 in assay [1] stood at 0.19 µM; in assay [2], 0.319 µM.

Turning to `O=C1CCN(c2ccccc2)N1` [phenidone], in assay [3], the “activity in human polymorphonuclear leukocytes assay” value is “active in this assay”. Also, in assay [4], the IC50 is 9.25 µM.

Take `C=CCc1c(O)ccc2c1CCS2` [R4 = --CH2 CH= CH2, R6 = H, 4-(propen-3-yl)-5-hydroxy-2,3-dihydrobenzothiophene]: the IC50 in assay [1] amounted to 0.887 µM; in assay [2], 2.26 µM.

In the case of `Oc1ccc2c(c1)CCS2` [R4 = H, R6 = H, 5-Hydroxy-2,3-dihydrobenzothiophene], the IC50 in assay [1] amounted to 5.23 µM.

Regarding `CCCc1cc2c(cc1O)CCS2` [R4 = H, R6 = --C3 H8, 6-propyl-2,3-dihydro-5-hydroxybenzothiophene], the IC50 was 0.211 µM in assay [1] and 0.326 µM in assay [2].

Take `CC(Cc1ccc(O)c(O)c1)C(C)Cc1ccc(O)c(O)c1` (stereo not shown) [nordihydroguaiacetic acid, nordihydroguaiaretic acid]: the “activity in human polymorphonuclear leukocytes assay” value in assay [3] is reported as “active in this assay”. This compound also came in with an IC50 in assay [4] of 0.086 µM.
